According to US7919493B2, “Anititumoral ecteinascidin derivatives” (Pharma Mar, S.A., priority 2001, dated 2011):
≈ marks a conversion by molar mass, not a printed value.

How the values were obtained:
Format in all cases: cell-based
[1] = test system: P-388 (suspension culture of a lymphoid neoplasm from DBA/2 mouse); assay: Cytotoxic activity screening, P-388 cells; settings: Mus musculus, P388, 72 h, three days of incubation, approximate IC50 vs control growth
Description: (§1) Cell Cultures. Cells were maintained in logarithmic phase of growth in Eagle's Minimum Essential Medium, with Earle's Balanced Salts, with 2.0 mM L-glutamine, with non-essential amino acids, without sodium bicarbonate (EMEM/neaa); supplemented with 10% Fetal Calf Serum (FCS), 10^−2 M sodium bicarbonate and 0.1 g/l penicillin-G+streptomycin sulfate.
(§2) A simple screening procedure has been carried out to determine and compare the antitumour activity of these compounds, using an adapted form of the method described by Bergeron et al (1984). The tumour cell line employed have been P-388 (suspension culture of a lymphoid neoplasm from DBA/2 mouse), A-549 (monolayer culture of a human lung carcinoma), HT-29 (monolayer culture of a human colon carcinoma) and MEL-28 (monolayer culture of a human melanoma).
P-388 cell were seeded into 16 mm wells at 1×10^4 cells per well in 1 ml aliquots of MEM 5FCS containing the indicated concentration of drug. A separate set of cultures without drug was seeded as control growth to ensure that cells remained in exponential phase of growth. All determinations were carried out in duplicate.

[2] = test system: DU-145; assay: Cytotoxic activity screening, DU-145 cells; settings: Homo sapiens, DU-145, DU-145 cells
Description: [The source words this procedure for another cell line and reports this cell line under the same test.] as §1, §2
Examples of biological activities of the compounds described in the present application are in Table IV (IC50 (ng/mL)) on the following pages.

[3] = test system: HT-29 (monolayer culture of a human colon carcinoma); assay: Cytotoxic activity screening, HT-29 cells; settings: Homo sapiens, HT-29, 72 h, three days of incubation, Crystal Violet, approximate IC50
Description: as §1
(§3) A separate set of cultures without drug was seeded as control growth to ensure that cells remained in exponential phase of growth. All determinations were carried out in duplicate. After three days of incubation at 37° C., 10% CO2 in a 98% humid atmosphere, the wells were stained with 0.1% Crystal Violet. An approximately IC50 was determined by comparing the growth in wells with drug to the growth in wells control.

[4] = test system: A-549 (monolayer culture of a human lung carcinoma); assay: Cytotoxic activity screening, A-549 cells; settings: Homo sapiens, A549, 72 h, three days of incubation, Crystal Violet, approximate IC50
Description: as §1, §3

[5] = test system: MEL-28 (monolayer culture of a human melanoma); assay: Cytotoxic activity screening, MEL-28 cells; settings: Homo sapiens, SK-MEL-28, 72 h, three days of incubation, Crystal Violet, approximate IC50
Description: as §1, §2
as §3, with “A-549, HT-29 and MEL-28 were seeded into 16 mm wells at 2×10^4 cells per well in 1 ml aliquots of MEM 10FCS containing the indicated concentration of drug. A separate” for “A separate”

SMILES | IC50 [1] | IC50 [2] | IC50 [3] | IC50 [4] | IC50 [5]
COc1c(C)cc2c(c1O)[C@@H]1C3[C@@H]4SC[C@H](NC(=O)C(NC(=O)/C=C/c5ccccc5)C(C)C)C(=O)OC[C@@H](c5c6c(c(C)c(OC(C)=O)c54)OCO6)N3[C@@H](C#N)[C@H](C2)N1C (stereo partly drawn) [Compound 3r] | 1 ng/mL (≈ 1.17 nM) | 1 ng/mL (≈ 1.17 nM) | 1 ng/mL (≈ 1.17 nM) | 1 ng/mL (≈ 1.17 nM) | 1 ng/mL (≈ 1.17 nM)
COc1c(C)cc2c(c1O)[C@@H]1C3[C@@H]4SC[C@H](NC(=O)C(NC(=O)C(C)N)C(C)C)C(=O)OC[C@@H](c5c6c(c(C)c(OC(C)=O)c54)OCO6)N3[C@@H](C#N)[C@H](C2)N1C (stereo partly drawn) [Compound 3s] | 1 ng/mL (≈ 1.26 nM) | 1 ng/mL (≈ 1.26 nM) | 1 ng/mL (≈ 1.26 nM) | 1 ng/mL (≈ 1.26 nM) | 1 ng/mL (≈ 1.26 nM)
COc1c(C)cc2c(c1O)[C@@H]1C3[C@@H]4SC[C@H](NC(=O)C(NC(=O)C(C)NC(C)=O)C(C)C)C(=O)OC[C@@H](c5c6c(c(C)c(OC(C)=O)c54)OCO6)N3[C@@H](C#N)[C@H](C2)N1C (stereo partly drawn) [Compound 3t] | 10 ng/mL (≈ 12 nM) | 10 ng/mL (≈ 12 nM) | 10 ng/mL (≈ 12 nM) | 10 ng/mL (≈ 12 nM) | 10 ng/mL (≈ 12 nM)
COc1c(C)cc2c(c1O)[C@@H]1C3[C@@H]4SC[C@H](NC(=O)C(NC(=O)C(C)NC(=O)/C=C/c5ccccc5)C(C)C)C(=O)OC[C@@H](c5c6c(c(C)c(OC(C)=O)c54)OCO6)N3[C@@H](C#N)[C@H](C2)N1C (stereo partly drawn) [Compound 3u] | 5 ng/mL (≈ 5.42 nM) | 1 ng/mL (≈ 1.08 nM) | 1 ng/mL (≈ 1.08 nM) | 5 ng/mL (≈ 5.42 nM) | 1 ng/mL (≈ 1.08 nM)
COc1c(C)cc2c(c1O)[C@@H]1C3[C@@H]4SC[C@H](NC(=O)C(C)N)C(=O)OC[C@@H](c5c6c(c(C)c(OC(C)=O)c54)OCO6)N3[C@@H](C#N)[C@H](C2)N1C (stereo partly drawn) [Compound 3v] | 1 ng/mL (≈ 1.44 nM) | 1 ng/mL (≈ 1.44 nM) | 1 ng/mL (≈ 1.44 nM) | 1 ng/mL (≈ 1.44 nM) | 1 ng/mL (≈ 1.44 nM)
COc1c(C)cc2c(c1O)[C@@H]1C3[C@@H]4SC[C@H](NC(=O)C(C)NC(C)=O)C(=O)OC[C@@H](c5c6c(c(C)c(OC(C)=O)c54)OCO6)N3[C@@H](C#N)[C@H](C2)N1C (stereo partly drawn) [Compound 3w] | 1 ng/mL (≈ 1.36 nM) | 1 ng/mL (≈ 1.36 nM) | 1 ng/mL (≈ 1.36 nM) | 1 ng/mL (≈ 1.36 nM) | 1 ng/mL (≈ 1.36 nM)
COc1c(C)cc2c(c1O)[C@@H]1C3[C@@H]4SC[C@H](NC(=O)C(C)NC(=O)/C=C/c5ccccc5)C(=O)OC[C@@H](c5c6c(c(C)c(OC(C)=O)c54)OCO6)N3[C@@H](C#N)[C@H](C2)N1C (stereo partly drawn) [Compound 3x] | 0.1 ng/mL (≈ 0.121 nM) | 0.1 ng/mL (≈ 0.121 nM) | 0.1 ng/mL (≈ 0.121 nM) | 0.1 ng/mL (≈ 0.121 nM) | 0.1 ng/mL (≈ 0.121 nM)
COc1c(C)cc2c(c1O)[C@@H]1C3[C@@H]4SC[C@@H](NC(C)=O)C(=O)OC[C@@H](c5c6c(c(C)c(OC(C)=O)c54)OCO6)N3[C@@H](O)[C@H](C2)N1C (stereo partly drawn) [Compound 4a] | 0.1 ng/mL (≈ 0.153 nM) | 0.1 ng/mL (≈ 0.153 nM) | 0.1 ng/mL (≈ 0.153 nM) | 0.5 ng/mL (≈ 0.763 nM) | 0.5 ng/mL (≈ 0.763 nM)
CCCC(=O)N[C@H]1CS[C@@H]2c3c(OC(C)=O)c(C)c4c(c3[C@H](COC1=O)N1C2[C@H]2c3c(cc(C)c(OC)c3O)C[C@@H]([C@@H]1O)N2C)OCO4 (stereo partly drawn) [Compound 4c] | 0.1 ng/mL (≈ 0.146 nM) | 0.1 ng/mL (≈ 0.146 nM) | 0.1 ng/mL (≈ 0.146 nM) | 0.1 ng/mL (≈ 0.146 nM) | 0.1 ng/mL (≈ 0.146 nM)
COc1c(C)cc2c(c1O)[C@@H]1C3[C@@H]4SC[C@H](NC(=O)CC(C)C)C(=O)OC[C@@H](c5c6c(c(C)c(OC(C)=O)c54)OCO6)N3[C@@H](O)[C@H](C2)N1C (stereo partly drawn) [Compound 4d] | 0.5 ng/mL (≈ 0.717 nM) | 0.5 ng/mL (≈ 0.717 nM) | 0.5 ng/mL (≈ 0.717 nM) | 0.5 ng/mL (≈ 0.717 nM) | 0.5 ng/mL (≈ 0.717 nM)
CCCCCCCC(=O)N[C@H]1CS[C@@H]2c3c(OC(C)=O)c(C)c4c(c3[C@H](COC1=O)N1C2[C@H]2c3c(cc(C)c(OC)c3O)C[C@@H]([C@@H]1O)N2C)OCO4 (stereo partly drawn) [Compound 4e] | 1 ng/mL (≈ 1.35 nM) | 1 ng/mL (≈ 1.35 nM) | 1 ng/mL (≈ 1.35 nM) | 1 ng/mL (≈ 1.35 nM) | 1 ng/mL (≈ 1.35 nM)
CCCCCCCCCCCCCCCC(=O)N[C@H]1CS[C@@H]2c3c(OC(C)=O)c(C)c4c(c3[C@H](COC1=O)N1C2[C@H]2c3c(cc(C)c(OC)c3O)C[C@@H]([C@@H]1O)N2C)OCO4 (stereo partly drawn) [Compound 4f] | 100 ng/mL (≈ 117 nM) | 100 ng/mL (≈ 117 nM) | 100 ng/mL (≈ 117 nM) | 100 ng/mL (≈ 117 nM) | 100 ng/mL (≈ 117 nM)
